{"source": "patent US10342781B2", "about": "“Diazole amides” (CHEMOCENTRYX, INC., priority 2012, dated 2019)", "key": {"[1]": {"target": "T1, CCR1 (Homo sapiens, UniProt P32246)", "T1 construct": "host or cells: THP-1 myelomonocytic leukemia cells (or freshly isolated monocytes)", "T1 sequence (P32246 1-355)": "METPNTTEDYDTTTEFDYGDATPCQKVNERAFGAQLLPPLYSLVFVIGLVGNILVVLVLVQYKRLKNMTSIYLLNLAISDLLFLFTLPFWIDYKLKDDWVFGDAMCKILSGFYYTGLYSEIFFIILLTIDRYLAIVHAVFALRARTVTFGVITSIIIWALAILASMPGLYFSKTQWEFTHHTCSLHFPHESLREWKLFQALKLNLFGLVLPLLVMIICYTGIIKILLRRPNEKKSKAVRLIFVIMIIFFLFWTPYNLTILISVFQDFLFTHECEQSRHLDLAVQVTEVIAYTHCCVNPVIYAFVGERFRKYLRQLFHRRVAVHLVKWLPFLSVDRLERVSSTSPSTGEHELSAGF", "assay": "Chemotaxis (migration) assay", "assay_type": "cell-based", "settings": "THP-1 or monocyte cells, CCR1 chemokine ligand (MIP-1α, CCL15/Leukotactin), 1-2 hours at 37° C.", "description": "THP-1 cells were obtained from ATCC (TIB-202) and cultured as a suspension in RPMI-1640 medium supplemented with 2 mM L-glutamine, 1.5 g/L sodium bicarbonate, 4.5 g/L glucose, 10 mM HEPES, 1 mM sodium pyruvate, 0.05% 2-mercaptoethanol and 10% FBS. Cells were grown under 5% CO2/95% air, 100% humidity at 37° C. and subcultured twice weekly at 1:5 (cells were cultured at a density range of 2×10^5 to 2×10^6 cells/mL) and harvested at 1×10^6 cells/mL. THP-1 cells express CCR1 and can be used in CCR1 binding and functional assays.\nChemotaxis assays were performed using 5 μm pore polycarbonate, polyvinylpyrrolidone-coated filters in 96-well chemotaxis chambers (Neuroprobe; Gaithersburg, Md.) using chemotaxis buffer (Hank's balanced salt solution (HBSS) and 1% FBS). CCR1 chemokine ligands (i.e., MIP-1α, CCL15/Leukotactin; R&D Systems; Minneapolis, Minn.) are use to evaluate compound mediated inhibition of CCR1 mediated migration. Other chemokines (i.e., SDF-1α; R&D Systems; Minneapolis, Minn.) are used as specificity controls. The lower chamber was loaded with 29 μl of chemokine (i.e., 0.1 nM CCL15/Leukotactin) and varying amounts of compound, the top chamber contained 100,000 THP-1 or monocyte cells in 20 μl. The chambers were incubated 1-2 hours at 37° C., and the number of cells in the lower chamber quantified either by direct cell counts in five high powered fields per well or by the CyQuant assay (Molecular Probes), a fluorescent dye method that measures nucleic acid content and microscopic observation.\nOne of the primary functions of chemokines is their ability to mediate the migration of chemokine receptor-expressing cells, such as white blood cells. To confirm that a compound of interest inhibited not only CCR1 specific binding and signaling (at least as determined by calcium mobilization assays), but also CCR1 mediated migration, a chemotaxis assay was employed. THP-1 myelomonocytic leukemia cells, which resemble monocytes, as wells as freshly isolated monocytes, were used as targets for chemoattraction by CCR1 chemokine ligands (i.e., MIP-1α, CCL15/leukotactin). Cells were placed in the top compartment of a microwell migration chamber, while MIP-1α (or other potent CCR1 chemokine ligand) and increasing concentrations of a compound of interest was loaded in the lower chamber. […] To ascertain a compound of interest's affinity for CCR1 as well as to confirm its ability to inhibit CCR1 mediated cell migration, inhibitory activity was titered over a 1×10^−10 to 1×10^−4 M range of compound concentrations in this chemotaxis assay. In this assay, the amount of compound was varied; while cell number and chemokine agonist concentrations were held constant. After the chemotaxis chambers were incubated 1-2 hours at 37° C., the responding cells in the lower chamber were quantified by labeling with the CyQuant assay (Molecular Probes), a fluorescent dye method that measures nucleic acid content, and by measuring with a Spectrafluor Plus (Tecan). The computer program Prism from GraphPad, Inc. (San Diego, Ca) was used to calculate IC50 values. IC50 values are those compound concentrations required to inhibit the number of cells responding to a CCR1 agonist by 50%."}, "[2]": {"system": "inflammatory cells recruited to the inflamed synovial fluid of the knee joints", "assay": "Rabbit model of destructive joint inflammation (rabbit LPS study)", "assay_type": "in vivo, Female New Zealand rabbits", "settings": "intra-articular LPS (10 ng), dosed orally in 1% methocel 2 hours before and 4 hours after LPS, knees lavaged sixteen hours after LPS", "description": "A rabbit LPS study was conducted essentially as described in Podolin, et al. J. Immunol. 169(11):6435-6444 (2002). Female New Zealand rabbits (approximately 2 kilograms) were treated intra-articularly in both knees with LPS (10 ng). The compound of interest, for example 1.016, (formulated in 1% methocel) or vehicle (1% methocel) was dosed orally at a 5 ml/kg dose volume at two times (2 hours before the intra-articular LPS injection and 4 hours after the intra-articular LPS injection). Sixteen hours after the LPS injection, knees were lavaged and cells counts were performed. Beneficial effects of treatment were determined by reduction in the number of inflammatory cells recruited to the inflamed synovial fluid of the knee joints."}}, "data": [{"compound": "Cc1nc(C(F)(F)F)cn1C(C)C(=O)Nc1nnn(-c2ccc(Cl)cc2)c1C(C)C", "note": "(stereo not drawn) [1.001]", "values": [{"measurement": "IC50", "setting": "[1]", "result": "≤ 100", "unit": "nM"}]}, {"compound": "Cc1nc(C(F)(F)F)cn1C(C)C(=O)Nc1cnn(-c2ccc(Cl)cc2)c1C1CC1", "note": "(stereo not drawn) [1.002]", "values": [{"measurement": "IC50", "setting": "[1]", "result": "100 to 10000", "unit": "nM"}]}, {"compound": "Cc1nc(C(F)(F)F)cn1C(C)C(=O)Nc1cnn(-c2ccc(F)cc2)c1N(C)C", "note": "(stereo not drawn) [1.003]", "values": [{"measurement": "IC50", "setting": "[1]", "result": "100 to 10000", "unit": "nM"}]}, {"compound": "Cc1nc(C(F)(F)F)cn1C(C)C(=O)Nc1cnn(-c2ccc(F)cc2)c1Cl", "note": "(stereo not drawn) [1.004]", "values": [{"measurement": "IC50", "setting": "[1]", "result": "100 to 10000", "unit": "nM"}]}, {"compound": "Cc1nc(C(F)(F)F)cn1C(C)C(=O)Nc1cnn(-c2ccc(F)cc2)c1OC(C)C", "note": "(stereo not drawn) [1.005]", "values": [{"measurement": "IC50", "setting": "[1]", "result": "100 to 10000", "unit": "nM"}]}, {"compound": "CCOc1c(NC(=O)C(C)n2cc(C(F)(F)F)nc2C)cnn1-c1ccc(F)cc1", "note": "(stereo not drawn) [1.006]", "values": [{"measurement": "IC50", "setting": "[1]", "result": "100 to 10000", "unit": "nM"}]}, {"compound": "Cc1c(Cl)c(C(F)(F)F)nn1C(C)(C)C(=O)Nc1cnn(-c2ccc(F)cc2)c1C(C)C", "note": "[1.007]", "values": [{"measurement": "IC50", "setting": "[1]", "result": "100 to 10000", "unit": "nM"}]}, {"compound": "Cc1nc(C(F)(F)F)nn1C(C)C(=O)Nc1cnn(-c2ccc(F)cc2)c1C(C)C", "note": "(stereo not drawn) [1.008]", "values": [{"measurement": "IC50", "setting": "[1]", "result": "100 to 10000", "unit": "nM"}]}, {"compound": "Cc1nc(C(F)(F)F)cn1C(C)C(=O)Nc1cnn(-c2ccc(F)cc2)c1C(C)C", "note": "(stereo not drawn) [1.009]", "values": [{"measurement": "IC50", "setting": "[1]", "result": "≤ 100", "unit": "nM"}]}, {"compound": "Cc1nc(C(F)(F)F)nn1C(C)C(=O)Nc1cnn(-c2ccc(Cl)cc2)c1C(C)C", "note": "(stereo not drawn) [1.010]", "values": [{"measurement": "IC50", "setting": "[1]", "result": "≤ 100", "unit": "nM"}]}, {"compound": "Cc1nc(C(F)(F)F)cn1C(C)C(=O)Nc1cnn(-c2ccc(Cl)cc2)c1C(C)C", "note": "(stereo not drawn) [1.011]", "values": [{"measurement": "IC50", "setting": "[1]", "result": "≤ 100", "unit": "nM"}]}, {"compound": "Cc1nc(C(F)(F)F)c2n1C(C(=O)Nc1cnn(-c3ccc(Cl)cc3)c1C(C)C)CCC2", "note": "(stereo not drawn) [1.012]", "values": [{"measurement": "IC50", "setting": "[1]", "result": "≤ 100", "unit": "nM"}]}, {"compound": "Cc1nc(C(F)(F)F)cn1C(C)C(=O)Nc1cnn(-c2ccc(F)cc2)c1C(C)(C)C", "note": "(stereo not drawn) [1.013]", "values": [{"measurement": "IC50", "setting": "[1]", "result": "100 to 10000", "unit": "nM"}]}, {"compound": "Cc1c(Cl)c(C(F)(F)F)nn1C(CCCCO)C(=O)Nc1cnn(-c2ccc(F)cc2)c1C(C)C", "note": "(stereo not drawn) [1.014]", "values": [{"measurement": "IC50", "setting": "[1]", "result": "100 to 10000", "unit": "nM"}]}, {"compound": "Cc1nc(C(F)(F)F)cn1C(C)C(=O)Nc1cnn(-c2ccc(Cl)cc2)c1C(C)C", "note": "(stereo not drawn) [1.015]", "values": [{"measurement": "IC50", "setting": "[1]", "result": "≤ 100", "unit": "nM"}]}, {"compound": "Cc1c(Cl)c(C(F)(F)F)nn1C(C)C(=O)Nc1cnn(-c2ccc(F)cc2)c1C(C)C", "note": "(stereo not drawn) [1.016]", "values": [{"measurement": "reduction in the number of inflammatory cells recruited to the inflamed synovial fluid of the knee joints", "setting": "[2]", "result": "significant reduction in recruited inflammatory cells"}, {"measurement": "IC50", "setting": "[1]", "result": "≤ 100", "unit": "nM"}]}, {"compound": "CCC(C(=O)Nc1cnn(-c2ccc(F)cc2)c1C(C)C)n1nc(C(F)(F)F)c(Cl)c1C", "note": "(stereo not drawn) [1.017]", "values": [{"measurement": "IC50", "setting": "[1]", "result": "≤ 100", "unit": "nM"}]}, {"compound": "Cc1nc(C(F)(F)F)cn1C(C)C(=O)Nc1cnn(-c2ccc(F)cc2)c1C(C)C", "note": "(stereo not drawn) [1.018]", "values": [{"measurement": "IC50", "setting": "[1]", "result": "≤ 100", "unit": "nM"}]}, {"compound": "CCC(C(=O)Nc1cnn(-c2ccc(F)cc2)c1C(C)C)n1cc(C(F)(F)F)nc1C", "note": "(stereo not drawn) [1.019]", "values": [{"measurement": "IC50", "setting": "[1]", "result": "≤ 100", "unit": "nM"}]}, {"compound": "Cc1c(NC(=O)Cn2nc(C(F)(F)F)c(Cl)c2C)ncn1-c1ccc(F)cc1", "note": "[1.020]", "values": [{"measurement": "IC50", "setting": "[1]", "result": "100 to 10000", "unit": "nM"}]}, {"compound": "Cc1c(Cl)c(C(F)(F)F)nn1CC(=O)Nc1cnn(-c2ccc(F)cc2)c1-c1ccccc1", "note": "[1.021]", "values": [{"measurement": "IC50", "setting": "[1]", "result": "100 to 10000", "unit": "nM"}]}, {"compound": "Cc1c(Cl)c(C(F)(F)F)nn1CC(=O)Nc1cnn(-c2ccc(F)cc2)c1C(C)C", "note": "[1.022]", "values": [{"measurement": "IC50", "setting": "[1]", "result": "≤ 100", "unit": "nM"}]}, {"compound": "CCc1c(NC(=O)Cn2nc(C(F)(F)F)c(Cl)c2C)cnn1-c1ccc(F)cc1", "note": "[1.023]", "values": [{"measurement": "IC50", "setting": "[1]", "result": "100 to 10000", "unit": "nM"}]}, {"compound": "Cc1nc(C(F)(F)F)cn1C(C)C(=O)Nc1cnn(-c2ccc(F)cc2)c1C", "note": "(stereo not drawn) [1.024]", "values": [{"measurement": "IC50", "setting": "[1]", "result": "100 to 10000", "unit": "nM"}]}, {"compound": "Cc1c(Cl)c(C(F)(F)F)nn1CC(=O)Nc1cnn(-c2ccc(F)cc2)c1C", "note": "[1.025]", "values": [{"measurement": "IC50", "setting": "[1]", "result": "100 to 10000", "unit": "nM"}]}, {"compound": "Cc1c(Cl)c(C(F)(F)F)nn1CC(=O)N(C)c1cnn(-c2ccc(F)cc2)c1", "note": "[1.026]", "values": [{"measurement": "IC50", "setting": "[1]", "result": "100 to 10000", "unit": "nM"}]}, {"compound": "Cc1c(Cl)c(C(F)(F)F)nn1CC(=O)Nc1cnn(-c2ccc(F)cc2)c1", "note": "[1.027]", "values": [{"measurement": "IC50", "setting": "[1]", "result": "100 to 10000", "unit": "nM"}]}, {"compound": "Cc1nc(C(F)(F)F)cn1C(C)C(=O)Nc1cnc(-c2ccc(Cl)cc2)n1C(C)C", "note": "(stereo not drawn) [1.028]", "values": [{"measurement": "IC50", "setting": "[1]", "result": "100 to 10000", "unit": "nM"}]}, {"compound": "Cc1nc(C(F)(F)F)cn1[C@@H](C)C(=O)Nc1cnn(-c2ccc(Cl)cc2)c1C1CCC1", "note": "[1.029]", "values": [{"measurement": "IC50", "setting": "[1]", "result": "≤ 100", "unit": "nM"}]}]}
